Experimental data: patent publication US6008240A, “2-(1H-4(5)-imidazoyl) cyclopropyl derivatives” (Gliatech, Inc., priority 1997, dated 1999)
Counter-ions that a name gives are not always drawn.

What follows are compounds tested against T1, Histamine H3 Receptor (Rattus norvegicus, UniProt Q9QYN8) (assay: In Vitro Histamine H3 Receptor Binding Analysis ([3H]-Nα-methylhistamine, rat cortical membranes)). Details: not given.
T1 construct: from tissue; host or cells: rat cerebral cortex membranes
Description: Histamine H3 receptor affinity was determined in rat cortical membranes using the H3 selective agonist ligand, [^3 H]-N^α -methylhistamine (78.9 Ci/mmole, DuPont NEN Research Products, Boston, Mass.) according to the method of West et al., (1990) Mol. Pharmacol. 38: 610-613 with modifications. Briefly, animals were sacrificed by decapitation and the cerebral cortex was rapidly removed. Rat cortices were mechanically homogenized with an Omni 1000 motor driven homogenizer in 10 volumes (wt/vol) of Krebs-Ringers Hepes buffer (pH 7.4) containing the following protease inhibitors; EDTA (10 mmol), PMSF (0.1 mM), chymostatin (0.2 mg/50 mL) and leupeptin (0.2 mg/50 mL). The homogenate was centrifuged in a Sorvall at ~40,000 x g for 30 min. The pellet was resuspended by mechanical homogenization in 25 mL water and lysed on ice for 30 min. The homogenate was recentrifuged and the membrane lysis was repeated. The membranes were recentrifuged and the final pellet was resuspended in 14 volumes of water to give approximately 200 μg protein/100 μl final concentration. The suspension was stored at -80° C. prior to use. Protein concentrations were determined by Coomassie Plus Protein Assay (Pierce, Rockford, Ill.).
Nonspecific binding (NSB) was accounted for by the inclusion of thioperamide (10 μM). Samples were incubated for 40 minutes at 25° C. The samples were filtered through glass fiber strips, pre-washed with 0.3% polyethyleneimine, using a Brandell cell harvester. The filters were rapidly washed three times with 4 ml of 25 mM Tris buffer containing 145 mM NaCl (pH 7.4, 4° C.). Filters were transferred to polyethylene minivials and counted in 3.5 ml of scintillation fluid (Ecolume, ICN Biomedicals, Inc.). Using this procedure, the non-specific binding was less than 10% of the total binding and the binding to the glass fiber filters was negligible. Saturation and competition experiments were analyzed with the ReceptorFit saturation and competition curve fitting programs (Lundon Software, Inc., Cleveland, Ohio).

T1 sequence (Q9QYN8 whole entry): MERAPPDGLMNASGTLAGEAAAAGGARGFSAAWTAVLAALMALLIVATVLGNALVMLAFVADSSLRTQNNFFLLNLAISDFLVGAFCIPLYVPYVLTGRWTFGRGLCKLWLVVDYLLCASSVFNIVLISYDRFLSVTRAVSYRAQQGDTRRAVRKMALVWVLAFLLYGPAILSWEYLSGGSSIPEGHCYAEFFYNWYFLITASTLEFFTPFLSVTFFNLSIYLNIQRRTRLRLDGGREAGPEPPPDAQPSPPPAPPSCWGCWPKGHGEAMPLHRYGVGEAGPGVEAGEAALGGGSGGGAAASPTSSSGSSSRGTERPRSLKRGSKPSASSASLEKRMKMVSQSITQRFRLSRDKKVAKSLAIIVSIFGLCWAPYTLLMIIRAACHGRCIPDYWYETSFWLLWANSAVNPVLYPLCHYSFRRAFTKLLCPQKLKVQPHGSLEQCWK

Row | Structure (SMILES) | Ki [nM]
1 | O=C(N[C@@H]1C[C@H]1c1cnc[nH]1)OCCC1CCCC1 (relative stereo) [Example 49, (±)-trans-(2-Cyclopentylethoxy)-N-(2-imidazol-4-ylcyclopropyl) formamide] | 13 ± 1.5
2 | O=C(N[C@@H]1C[C@H]1c1c[nH]cn1)OCCC1CCCCC1 (relative stereo) [Example 46, (±)-trans-(Cyclohexylethoxy)-N-(2-imidazol-4-cyclopropyl) formamide] | 29 ± 1.2
3 | O=C(N[C@@H]1C[C@H]1c1cnc[nH]1)OCc1cccc(Br)c1 (relative stereo) [Example 51, (±)-trans-((3-Bromophenyl)methoxy)-N-(2-imidazol-4-ylcyclopropyl) formamide] | 9.9 ± 0.35
4 | N[C@@H](CC1CCCCC1)C(=O)N[C@H]1C[C@@H]1c1cnc[nH]1 [Example 13, (1S,2S)-trans-2-(S)-amino-3-cyclohexyl-N-(2-imidazol-4-ylcyclopropyl)propanamide] | 21.5 ± 1.8
5 | C(=C/[C@@H]1C[C@H]1c1c[nH]cn1)/CCC1CCCCC1 (relative stereo) [Example 16, (±)-trans4-(2-(4-Cyclohexylbut-cis-1-enyl)cyclopropyl)imidazole] | 12.2 ± 1
6 | C(#C[C@@H]1C[C@H]1c1c[nH]cn1)CCC1CCCC1 (racemic) [Example 54, (±)-trans-4-(2-(4-Cyclopentylbut-1-ynyl)cyclopropyl)imidazole] | 1.43 ± 0.33
7 | C(#C[C@@H]1C[C@H]1c1cnc[nH]1)CCCCc1ccccc1 (relative stereo) [Example 41, (±)-4-(2-(6-Phenylhex-1-ynyl)cyclopropyl)imidazole] | 16 ± 0.6
8 | C(=C/[C@@H]1C[C@H]1c1c[nH]cn1)/CCC1CCCCC1 [Example 23, (1R, 2R)-trans-4-(2-(4-Cyclohexylbut-cis-1-enyl)cyclopropyl)imidazole] | 6.2 ± 0.8
9 | O=C(N[C@@H]1C[C@H]1c1cnc[nH]1)OCc1ccccc1Br (relative stereo) [Example 50, (±)-trans-(2-Bromophenyl)methoxy)-N-(2-imidazol-4-ylcyclopropyl) formamide] | 8 ± 0.43
10 | C(#C[C@@H]1C[C@H]1c1c[nH]cn1)CCC1CCCCC1 (racemic) [Example 55, (±)trans-4-(2-(4-cyclohexylbut-1-ynyl)cyclopropyl)imidazole] | 1.8 ± 0.64
11 | O=C(NCCCC1CCCCC1)[C@@H]1C[C@H]1c1c[nH]cn1 (relative stereo) [Example 29, N-[3-cyclohexylpropyl]-3(R)-[1H-imidazol-4-yl]-2(R)-cyclopropanamide and N-[3-cyclohexylpropyl]-3(S)-[1H-imidazol-4-yl]-2(S)-cyclopropanamide] | 36 ± 8
12 | O=C(NCCCC1CCCCC1)[C@H]1C[C@@H]1c1cnc[nH]1 [Example 30] | 42 ± 7
13 | C[C@@H](NC(=O)[C@@H]1C[C@H]1c1cnc[nH]1)C1CCCCC1 (mixture of isomers) [Example 6, N-[(R)-1-cyclohexylethyl]-3-(1H-imidazol-4-yl)-trans-(2R,3R)-cyclopropanamide and N-[(R)-1-cyclohexylethyl]-3-(1H-imidazol-4-yl)-trans-(2S,3S)-cyclopropanamide hydrochloride] | 70 ± 8.6
14 | O=C(NCc1ccccc1)[C@@H]1C[C@H]1c1c[nH]cn1 (relative stereo) [Example 1, N-(1-benzyl)-3-[(1H-imidazol-4-yl)]-(2R,3R)-trans-cyclopropanamide and N-(1-benzyl)-3-[(1H-imidazol-4-yl)]-(2S,3S)-trans-cyclopropanamide hydrochloride] | 53 ± 2
15 | COC(=O)/C=C\[C@@H]1C[C@H]1c1cnc[nH]1 (relative stereo) [Example 53, (±) trans-Methyl-3-(2-imidazol-4-ylcyclopropyl)prop-2-enoate] | 21.6 ± 3.6
16 | O=C(CCCC1CCCCC1)[C@@H]1C[C@H]1c1c[nH]cn1 (racemic) [Example 10, (±)-trans-4-cyclohexyl-1-(2-imidazol-4-ylcyclopropyl) butan-1-one] | 97 ± 21
17 | N[C@@H](CC1CCCCC1)C(=O)N[C@@H]1C[C@H]1c1cnc[nH]1 [Example 12, (1R,2R)-trans-2-(S)-amino-3-cyclohexyl-N-(2-imidazol-4-ylcyclopropyl)propanamide] | 1.85 ± 0.5

Same assay, conditions: rat cortical membranes; 0.8-1.2 nM [3H]-Nα-methylhistamine; 40 minutes at 25° C.; pH 7.4; read-out: H3 Receptor Ki

Row | Structure (SMILES) | Ki [nM]
18 | CC(C)(C)CCC#C[C@H]1C[C@@H]1c1cnc[nH]1 [Example 52, (1S,2S)-trans-4-(2-(5,5-Dimethylhex-1-ynyl)cyclopropyl)imidazole] | 5.3 ± 0.5
19 | CC1CCCCN1CCCNC(=O)[C@@H]1C[C@H]1c1c[nH]cn1 (relative stereo) [Example 3, (±)-trans-(2-imidazol-4-ylcyclopropyl)-N-(3-((±)-2-methylpiperidyl)propyl)formamide] | 659 ± 52
20 | O=C(NCCc1c[nH]c2ccccc12)[C@@H]1C[C@H]1c1c[nH]cn1 (relative stereo) [Example 35, (±)-trans-(2-imidazol-4-ylcyclopropyl)-N-(2-indol-3-ylethyl) formamide] | 441 ± 73
21 | O=C(Nc1ccccc1)[C@@H]1C[C@H]1c1c[nH]cn1 (relative stereo) [Example 5, N-(phenyl)-3-(1H-imidazol-4-yl)-trans-(2R,3R)-cyclopropanamide and N-(phenyl)-3-(1H-imidazol-4-yl)-trans-(2S,3S)-cyclopropanamide hydrochloride] | 267 ± 26
22 | N[C@H](Cc1ccc(Br)cc1)C(=O)N[C@@H]1C[C@H]1c1c[nH]cn1 (racemic) [Example 43, (1R,2R)-trans-(±)-2-Amino-3-(4-bromophenyl)-N-(2-imidazol-4-ylcyclopropyl)propanamide] | 13.7 ± 1.5
23 | O=C(NCCCCC1CCCCC1)[C@@H]1C[C@H]1c1c[nH]cn1 (relative stereo) [Example 37, (±)-trans-N-(4-Cyclohexylbutyl)(2-imidazol-4-ylcyclopropyl)formamide] | 68 ± 9.1
24 | O=C(NCCC1CCCCC1)C1CC1c1c[nH]cn1 [Example 28, (1R, 2R)-trans-N-(2-Cyclohexylethyl)(2-imidazol-4-ylcyclopropyl)formamide] | 46 ± 13
25 | O=C(NCC1CCCCC1)[C@@H]1C[C@H]1c1c[nH]cn1 [Example 2b] | 176 ± 9
26 | O=C(NCCC1CCCCC1)C1CC1c1c[nH]cn1 [Example 27, (1S, 2S)-trans-N-(2-Cyclohexylethyl)(2-imidazol-4-ylcyclopropyl)formamide] | 8.8 ± 0.1
27 | CN(CC1CCCCC1)C(=O)[C@@H]1C[C@H]1c1c[nH]cn1 (racemic) [Example 11, (±)-trans-N-(cyclohexylmethyl)(2-imidazol-4-ylcyclopropyl)-N-methylformamide] | 134 ± 1
28 | CC(C)(C)CCC#C[C@@H]1C[C@H]1c1c[nH]cn1 [Example 39, (1R,2R)-4-(2-(5,5-Dimethylhex-1-ynyl)cyclopropyl)imidazole] | 0.15 ± 0.04
29 | O=C(NCCCc1ccccc1)[C@@H]1C[C@H]1c1c[nH]cn1 (relative stereo) [Example 33, (±)-trans-(2-imidazol-4-ylcyclopropyl)-N-(3-phenylpropyl) formamide] | 197 ± 23

Same assay, conditions: read-out: H3 Receptor Ki; rat cortical membranes; 0.8-1.2 nM [3H]-Nα-methylhistamine; 40 minutes at 25° C.; pH 7.4

Row | Structure (SMILES) | Ki [nM]
30 | N[C@H](/C=C\[C@@H]1C[C@H]1c1c[nH]cn1)CC1CCCCC1 [Example 21, (1R,2R)-trans-1-Cyclohexyl-4-(2-imidazol-4-ylcyclopropyl)but-cis-3-en-2(S)-ylamine] | 97.7 ± 28
31 | N[C@H](/C=C/[C@@H]1C[C@H]1c1c[nH]cn1)CC1CCCCC1 [Example 20, (1R,2R)-trans-1-Cyclohexyl-4-(2-imidazol-4-ylcyclopropyl)but-trans-3-en-2(S)-ylamine] | 0.37 ± 0.2
